# Experimental data taken from patent US11214594B2, “Antimicrobial peptide having synergistic antibacterial effect with antibiotics on multidrug resistant bacteria, and use thereof” (priority 2016, dated 2022).
# Where a SMILES comes first, the peptide text is derived from it. [ ]: non-standard residue; d: D form.
# Assays:
# E. coli [1] = assay: microbe, parasite or virus in culture; format: cell-based, Escherichia coli; conditions: 16 h
# Method in brief: (§1)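 Broth microdilution in MH medium: strains diluted to 2×10^6 CFU were mixed with equal volumes of twofold serial peptide dilutions in MH medium. MIC was taken as the lowest peptide concentration preventing bacterial growth.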
# MDREC 1229 = assay: microbe, parasite or virus in culture; format: cell-based, Escherichia coli
# Method in brief: as §1
# MDRPA 2002 = format: cell-based, Pseudomonas aeruginosa
# Method in brief: as §1
# A. baumannii = assay: microbe, parasite or virus in culture; format: cell-based, Acinetobacter baumannii; conditions: for Antibacterial activity relative to PapMA-1: A. baumannii and S. typhimurium
# Method in brief: as §1
# MDRAB 12035 = assay: microbe, parasite or virus in culture; format: cell-based, Acinetobacter baumannii
# Method in brief: as §1
# S. typhimurium = assay: microbe, parasite or virus in culture; format: cell-based, Salmonella typhimurium
# Method in brief: as §1
# MDRST 8007 = assay: Minimal inhibitory concentration (MIC), single agent; format: cell-based, Salmonella typhimurium; conditions: agent alone
# Method in brief: as §1
# B. subtilis = assay: microbe, parasite or virus in culture; format: cell-based, Bacillus subtilis
# Method in brief: as §1
# S. aureus = assay: microbe, parasite or virus in culture; format: cell-based, Staphylococcus aureus
# Method in brief: as §1
# MRSA 3114 = format: cell-based, Staphylococcus aureus; conditions: 3114
# Method in brief: as §1
# MRSA 3126 = format: cell-based, Staphylococcus aureus; conditions: 3126
# Method in brief: as §1
# E. coli [2] = assay: MIC of antibiotic during combined treatment with antimicrobial peptide; format: cell-based, Escherichia coli; conditions: for Synergistic effect of antibacterial activity with existing antibiotics compared with PapMA-1: E. coli and MDREC1229; for Antibiotic MIC, Erythromycin / Antibiotic MIC, Linezolid / Antibiotic MIC, Vancomycin: E. coli
# Method in brief: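 First, antibiotic solution is diluted with MH medium; next, the dilution is dispensed into wells containing peptide; finally, the orientation is swapped and MIC of each mixture determined.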
# [3] = system: multi-drug resistant bacteria; assay: MIC, summary statements for multi-drug resistant bacteria; format: cell-based
# Method: For the antibacterial activity, a minimal inhibitory concentration (MIC) of a peptide in which fungus bodies were not split in an MH medium with sufficient nutrients was measured.
# Specifically, the strains described in the following [Table 2] were purchased and diluted with an MH medium such that the number of bacteria was 2×10^6 colony-forming units (CFUs), 100 μl of each of the diluted strains was aliquoted into a 96-well microtiter plate, and then 100 μl of a peptide solution diluted with the MH medium (solution diluted stepwise at 2: 1) was added to each well.
# [4] = erythromycin combined with peptide at 1 μg/ml
# [5] = erythromycin combined with peptide at 2 μg/ml
# [6] = erythromycin combined with peptide at 4 μg/ml
# [7] = erythromycin combined with peptide at 6 μg/ml
# [8] = erythromycin combined with peptide at 8 μg/ml
# [9] = erythromycin combined with peptide at 16 μg/ml
# [10] = erythromycin combined with peptide at 32 μg/ml
# [11] = erythromycin combined with peptide at 64 μg/ml
# [12] = linezolid combined with peptide at 1 μg/ml
# [13] = linezolid combined with peptide at 2 μg/ml
# [14] = linezolid combined with peptide at 4 μg/ml
# [15] = linezolid combined with peptide at 6 μg/ml
# [16] = linezolid combined with peptide at 8 μg/ml
# [17] = linezolid combined with peptide at 16 μg/ml
# [18] = linezolid combined with peptide at 32 μg/ml
# [19] = linezolid combined with peptide at 64 μg/ml
# [20] = vancomycin combined with peptide at 1 μg/ml
# [21] = vancomycin combined with peptide at 2 μg/ml
# [22] = vancomycin combined with peptide at 4 μg/ml
# [23] = vancomycin combined with peptide at 6 μg/ml
# [24] = vancomycin combined with peptide at 8 μg/ml
# [25] = vancomycin combined with peptide at 16 μg/ml
# [26] = vancomycin combined with peptide at 32 μg/ml
# [27] = vancomycin combined with peptide at 64 μg/ml
structure (smiles),measurement,setting,value
"CC[C@H](C)[C@H](NC(=O)[C@H](CCCCN)NC(=O)[C@H](Cc1c[nH]c2ccccc12)NC(=O)[C@@H](N)CCCNC(=N)N)C(=O)N[C@@H](Cc1ccccc1)C(=O)N[C@@H](CCCCN)C(=O)N[C@@H](CCCCN)C(=O)N[C@H](C(=O)N[C@H](CC(C)C)C(=O)N[C@@H](CCCCN)C(=O)N[C@@H](CC(C)C)C(=O)N[C@@H](CC(C)C)C(=O)N[C@@H](Cc1c[nH]cn1)C(=O)N[C@@H](CCC(=O)O)C(=O)N[C@@H](C)C(=O)N[C@@H](CCCCN)C(=O)N[C@@H](CCCCN)C(=O)N[C@@H](Cc1c[nH]c2ccccc12)C(N)=O)[C@@H](C)CC [PapMA-24, RWK IFK KIl KLL HEA KKW-NH2] (H-RWKIFKKI[dL]KLLHEAKKW-NH2; N-terminus assumed)",Minimal inhibitory concentration MIC,E. coli [1],32 µg/mL
same,Minimal inhibitory concentration MIC,MDREC 1229,32 µg/mL
same,"Peptide MIC, peptide alone",MDREC 1229,32 µg/mL
same,Minimal inhibitory concentration MIC,MDRPA 2002,64 µg/mL
same,Minimal inhibitory concentration MIC,A. baumannii,16 µg/mL
same,"Peptide MIC, peptide alone",A. baumannii,16 µg/mL
same,Antibacterial activity relative to PapMA-1,A. baumannii,at least twice as high
same,Minimal inhibitory concentration MIC,MDRAB 12035,32 µg/mL
same,"Peptide MIC, peptide alone",MDRAB 12035,32 µg/mL
same,Minimal inhibitory concentration MIC,S. typhimurium,32 µg/mL
same,Minimal inhibitory concentration MIC,MDRST 8007,32 µg/mL
same,Minimal inhibitory concentration MIC,B. subtilis,>128 µg/mL
same,Minimal inhibitory concentration MIC,S. aureus,>128 µg/mL
same,Minimal inhibitory concentration MIC,MRSA 3114,>128 µg/mL
same,Minimal inhibitory concentration MIC,MRSA 3126,>128 µg/mL
same,Synergistic effect of antibacterial activity with existing antibiotics compared with PapMA-1,E. coli [2],level similar to that of the PapMA-1 peptide
same,"Antibiotic MIC, Erythromycin",E. coli [2]; [4],64 µg/mL
same,"Antibiotic MIC, Erythromycin",E. coli [2]; [5],32 µg/mL
same,"Antibiotic MIC, Erythromycin",E. coli [2]; [6],16 µg/mL
same,"Antibiotic MIC, Erythromycin",E. coli [2]; [7],4 µg/mL
same,"Antibiotic MIC, Erythromycin",E. coli [2]; [8],2 µg/mL
same,"Antibiotic MIC, Erythromycin",E. coli [2]; [9],0.5 µg/mL
same,"Antibiotic MIC, Erythromycin",E. coli [2]; [10],0 µg/mL
same,"Antibiotic MIC, Erythromycin",E. coli [2]; [11],0 µg/mL
same,"Antibiotic MIC, Linezolid",E. coli [2]; [12],>128 µg/mL
same,"Antibiotic MIC, Linezolid",E. coli [2]; [13],128 µg/mL
same,"Antibiotic MIC, Linezolid",E. coli [2]; [14],64 µg/mL
same,"Antibiotic MIC, Linezolid",E. coli [2]; [15],32 µg/mL
same,"Antibiotic MIC, Linezolid",E. coli [2]; [16],32 µg/mL
same,"Antibiotic MIC, Linezolid",E. coli [2]; [17],8 µg/mL
same,"Antibiotic MIC, Linezolid",E. coli [2]; [18],0 µg/mL
same,"Antibiotic MIC, Linezolid",E. coli [2]; [19],0 µg/mL
same,"Antibiotic MIC, Vancomycin",E. coli [2]; [20],>128 µg/mL
same,"Antibiotic MIC, Vancomycin",E. coli [2]; [21],>128 µg/mL
same,"Antibiotic MIC, Vancomycin",E. coli [2]; [22],128 µg/mL
same,"Antibiotic MIC, Vancomycin",E. coli [2]; [23],32 µg/mL
same,"Antibiotic MIC, Vancomycin",E. coli [2]; [24],16 µg/mL
same,"Antibiotic MIC, Vancomycin",E. coli [2]; [25],8 µg/mL
same,"Antibiotic MIC, Vancomycin",E. coli [2]; [26],0 µg/mL
same,"Antibiotic MIC, Vancomycin",E. coli [2]; [27],0 µg/mL
same,Antibacterial activity relative to PapMA-1,[3],twice to four times higher
"CC[C@H](C)[C@H](NC(=O)[C@H](CCCCN)NC(=O)[C@H](Cc1c[nH]c2ccccc12)NC(=O)[C@@H](N)CCCNC(=N)N)C(=O)N[C@@H](Cc1ccccc1)C(=O)N[C@@H](CCCCN)C(=O)N[C@@H](CCCCN)C(=O)N[C@H](C(=O)N1CCC[C@H]1C(=O)N[C@@H](CCCCN)C(=O)N[C@@H](CC(C)C)C(=O)N[C@@H](CC(C)C)C(=O)N[C@@H](Cc1c[nH]cn1)C(=O)N[C@@H](CCC(=O)O)C(=O)N[C@@H](Cc1ccccc1)C(=O)N[C@@H](CCCCN)C(=O)N[C@@H](CCCCN)C(=O)N[C@@H](Cc1ccccc1)C(N)=O)[C@@H](C)CC [PapMA-12, RWK IFK KIP KLL HEF KKF-NH2] (H-RWKIFKKIPKLLHEFKKF-NH2; N-terminus assumed)",Minimal inhibitory concentration MIC,E. coli [1],8 µg/mL
same,Minimal inhibitory concentration MIC,MDREC 1229,16 µg/mL
same,"Peptide MIC, peptide alone",MDREC 1229,16 µg/mL
same,Minimal inhibitory concentration MIC,MDRPA 2002,64 µg/mL
same,Minimal inhibitory concentration MIC,A. baumannii,8 µg/mL
same,Antibacterial activity relative to PapMA-1,A. baumannii,at least twice as high
same,Minimal inhibitory concentration MIC,MDRAB 12035,8 µg/mL
same,"Peptide MIC, peptide alone",MDRAB 12035,8 µg/mL
same,Minimal inhibitory concentration MIC,S. typhimurium,16 µg/mL
same,Minimal inhibitory concentration MIC,MDRST 8007,16 µg/mL
same,Minimal inhibitory concentration MIC,B. subtilis,>128 µg/mL
same,Minimal inhibitory concentration MIC,S. aureus,>128 µg/mL
same,Minimal inhibitory concentration MIC,MRSA 3114,>128 µg/mL
same,Minimal inhibitory concentration MIC,MRSA 3126,>128 µg/mL
same,Synergistic effect of antibacterial activity with existing antibiotics compared with PapMA-1,E. coli [2],higher level than the PapMA-1 peptide
same,"Antibiotic MIC, Erythromycin",E. coli [2]; [4],64 µg/mL
same,"Antibiotic MIC, Erythromycin",E. coli [2]; [5],32 µg/mL
same,"Antibiotic MIC, Erythromycin",E. coli [2]; [6],2 µg/mL
same,"Antibiotic MIC, Erythromycin",E. coli [2]; [7],1 µg/mL
same,"Antibiotic MIC, Erythromycin",E. coli [2]; [8],0 µg/mL
same,"Antibiotic MIC, Erythromycin",E. coli [2]; [9],0 µg/mL
same,"Antibiotic MIC, Erythromycin",E. coli [2]; [10],0 µg/mL
same,"Antibiotic MIC, Erythromycin",E. coli [2]; [11],0 µg/mL
same,"Antibiotic MIC, Linezolid",E. coli [2]; [12],>128 µg/mL
same,"Antibiotic MIC, Linezolid",E. coli [2]; [13],128 µg/mL
same,"Antibiotic MIC, Linezolid",E. coli [2]; [14],8 µg/mL
same,"Antibiotic MIC, Linezolid",E. coli [2]; [15],2 µg/mL
same,"Antibiotic MIC, Linezolid",E. coli [2]; [16],0 µg/mL
same,"Antibiotic MIC, Linezolid",E. coli [2]; [17],0 µg/mL
same,"Antibiotic MIC, Linezolid",E. coli [2]; [18],0 µg/mL
same,"Antibiotic MIC, Linezolid",E. coli [2]; [19],0 µg/mL
same,"Antibiotic MIC, Vancomycin",E. coli [2]; [20],>128 µg/mL
same,"Antibiotic MIC, Vancomycin",E. coli [2]; [21],128 µg/mL
same,"Antibiotic MIC, Vancomycin",E. coli [2]; [22],16 µg/mL
same,"Antibiotic MIC, Vancomycin",E. coli [2]; [23],8 µg/mL
same,"Antibiotic MIC, Vancomycin",E. coli [2]; [24],0 µg/mL
same,"Antibiotic MIC, Vancomycin",E. coli [2]; [25],0 µg/mL
same,"Antibiotic MIC, Vancomycin",E. coli [2]; [26],0 µg/mL
same,"Antibiotic MIC, Vancomycin",E. coli [2]; [27],0 µg/mL
same,Antibacterial activity relative to PapMA-1,[3],twice to four times higher
